“Also recorded” adds a separate entry of the source.
Legend:
[1] = system: TF-induced platelet aggregation in human platelet-rich plasma; assay: TF-induced platelet aggregation assay (time delay / lag time) in human platelet-rich plasma; format: cell-based; details: human PRP; for 2×Base value (concentration required to double the time for TF-induced platelet aggregation): time delay of TF-induced platelet aggregation; for time delay of platelet aggregation: 0 μM = 75 seconds
Procedure: The remaining samples were then centrifuged at […] for 10 min to obtain platelet-poor plasma (PPP). Platelet count was adjusted to 2-2.5×10^8 cells/ml with platelet-poor plasma.
PRP (275 μl) sample was briefly mixed with 25 μl of 36 mg/ml pefabloc. Various compounds (in a volume of 1.2 μl) were added and incubated at 37° C. for 3 min in a cylindrical glass cuvette. Platelet aggregation was induced by 4 μl of Innovin®-CaCl2 mixture and measured under continuous stirring at 1000 rpm in a PA-200 platelet aggregation analyzer (Kowa, Tokyo, Japan). Platelet-poor plasma was used as a reference. Platelet aggregation curves defined by changes in light transmission over time were recorded for 15 min. The lag time was defined as the time from CaCl2 addition until the light transmittance reached 1%. The concentration of Innovin® and CaCl2 was adjusted for each sample so that the average control lag time was from 50 to 70 seconds.

[2] = system: thrombus formation in carotid artery; assay: Rabbit ECAT model; format: in vivo; details: i.v. infusion, drug concentration maintaining total blood flow at 80% of baseline
Procedure: Briefly, male, New Zealand, white rabbits were anesthetized with ketamine (50 mg/kg+50 mg/kg/h i.m.) and xylazine (10 mg/kg+10 mg/kg/h i.m.). These anesthetics were supplemented as needed. An electromagnetic flow probe was placed on a segment of an isolated carotid artery to monitor blood flow. Thrombus formation was induced by electrical stimulation of the carotid artery for 3 min at 4 mA using an external stainless steel bipolar electrode. […] Plasma concentrations were determined in blood samples taken at the end of the experiment by liquid chromatography-tandem mass spectrometry.
Carotid blood flow was measured continuously over the 90-min period of thrombus formation and total carotid blood flow was calculated as an area under the carotid blood flow-time curve. Preservation of total CBF relative to sustained baseline flow was used to assess antithrombotic activity. The drug concentrations which maintained total blood flow at 80% of baseline (ED80) was the common comparator among antithrombotic agents.

In the case of `CNc1ncnc2c1ncn2[C@H]1C[C@H](OP(=O)(O)O)[C@@H](COP(=O)(O)O)O1` [N6-methyl-2′-deoxyadenosine-3′,5′-bisphosphate, reference compound], the “effect on the time delay of TF-induced platelet aggregation (in words)” value (“effect on the time delay” below) [1] is reported as “no effect”.
With `CC(C)(C)c1ccccc1Oc1ncccc1NC(=O)Nc1ccc(OC(F)(F)F)cc1` [Compound F, 1-[2-(2-tert-Butyl-phenoxy)-pyridin-3-yl]-3-(4-trifluoromethoxy-phenyl)-urea] the “effect on the time delay” value [1] was “no effect” and the “2×Base value (concentration required to double the time for TF-induced platelet aggregation)” value (shortened to “2×Base value”) [1] was ~0 µM.
For `CC(C)CC(=O)Nc1cc(-c2ccc(C(N)=O)cc2C(=O)O)cc([C@@H]2C[C@](C)(c3ccccc3)c3cc(C(=N)N)ccc3N2)c1` [Compound C, 3′-((2S,4R)-6-Carbamimidoyl-4-methyl-4-phenyl-1,2,3,4-tetrahydro-quinolin-2-yl)-4-carbamoyl-5′-(3-methyl-butyrylamino)-biphenyl-2-carboxylic acid], the “effect on TF-induced platelet aggregation at high dose (in words)” value ([1]; 40 μM) was “weak efficacy”, the “effect on the time delay” value [1] was “barely showed any effect; also recorded: No effect” and the “2×Base value” value [1] was 26 µM. The ED80 [2] was 800 nM.
`CSCCNc1nc(SCCC(F)(F)F)nc2c1ncn2[C@@H]1O[C@H](COP(=O)(O)OP(=O)(O)C(Cl)(Cl)P(=O)(O)O)[C@@H](O)[C@H]1O` [cangrelor, reference compound] was tested, and the “effect on the time delay” value [1] was “no effect”.
`CS(=O)(=O)c1ccccc1-c1ccc(NC(=O)c2cc(C(F)(F)F)nn2-c2cccc(CN)c2)c(F)c1` [Compound B, 1-[3-(aminomethyl)phenyl]-N-[3-fluoro-2′-(methylsulfonyl)[1,1′-biphenyl]-4-yl]-3-(trifluoromethyl)-1H-pyrazole-5-carboxamide] showed an ED80 [2] of 400 nM.
In the case of `COc1cc([C@@H]2Nc3ccc(C(=N)N)cc3[C@H]3c4ccccc4C[C@H]32)c(-c2ccc(C(=O)O)cc2)cc1O` [Compound A, 2′-((6R,6aR,11bR)-2-Carbamimidoyl-5,6a,7,11b-tetrahydro-6H-indeno[2,1-c]quinolin-6-yl)-5′-hydroxy-4′-methoxy-biphenyl-4-carboxylic acid], the “time delay of platelet aggregation” value ([1]; 1.26 μM) is reported as 175 s, the “time delay of platelet aggregation” value ([1]; 4.0 μM) is reported as 286 s and the “time delay of platelet aggregation” value ([1]; 12.6 μM) is reported as 671 s. The “time delay of platelet aggregation” value ([1]; 25.2 μM) was 865 s, the “effect on the time delay” value [1] was “concentration-dependent effect; also recorded: Dose-dependent effect” and the “2×Base value” value [1] was 1.25 µM. For the same compound, the ED80 [2] was 1100 nM.
In the case of `NCc1ccccc1-n1nc(C(F)(F)F)cc1C(=O)Nc1ccc(-c2ccccc2S(N)(=O)=O)cc1F` [1-(2-aminomethylphenyl)-3-trifluoromethyl-N-[3-fluoro-2′-(aminosulfonyl)[1,1′-biphenyl)]-4-yl]-1H-pyrazole-5-carboxyamide], the “effect on the time delay” value [1] is reported as “dose-dependent effects”.

— patent US20080026474A1, “ASSAY FOR DIFFERENTIATING COMPOUNDS THAT MODULATE THE EXTRINSIC AND/OR INTRINSIC COAGULATION PATHWAYS” (Bristol-Myers Squibb Company, priority 2006, published 2008)
